Experimental data: patent US20240109836A1, “NON-HALL[…] ANALOGS FOR TREATMENT OF NEUROLOGICAL AND PSYCHIATRIC DISORDERS” (The Trustees of Columbia University in the City of New York, priority 2021, published 2024)

Experiments:
[1] = molecular target: 5-HT2B (Homo sapiens, UniProt P41595); test: IP1 agonist functional assay; type: cell-based
[2] = molecular target: 5-HT2A (Homo sapiens, UniProt P28223); test: IP1 agonist functional assay; type: cell-based; conditions: 5HT2A versus 5HT2B, relative agonism potencies
[3] = Forced swim test; type: in vivo, Mice (C57bl/6J); conditions: mice, 10 mg/kg s.c., 15 minutes post injection
Protocol: FIG. 1. […] N=5 mice (saline), N=10 (imipramine as a positive control), N=9 mice (Ariadne cohort). Y-axis show the immobility time per each testing session. Drugs were administered subcutaneously (s.c.).
Mice (C57bl/6J, 8-15 weeks, 29-35 g) were weighed and moved to the testing room 30 minutes prior to experimentation. Mice were administered 0.85% saline (s.c., 5 mice), imipramine 15 mg/kg (i.p., 10 mice), or Ariadne (32) 10 mg/kg (s.c., 9 mice). 15 minutes post injection the mice were moved to a forced swim cylinder with water kept at 23.8-25.0 degrees celsius. Mice were allowed to swim for 6 minutes after which they were removed, dried, and returned to their home cage. The last four minutes of the forced swim video footage was analyzed with Noldus FST scoring software. The mouse's view of the FST cylinder was obstructed prior to starting the forced swim test.

[4] = molecular target: T1, PDE4D2 (Homo sapiens, UniProt Q08499); test: SafetyScreen44 (Panlabs) panel; type: biochemical; conditions: 10 μM
T1 construct: Panlabs (SafetyScreen44 panel)
Protocol: (§1) Other targets included with less than ≥50% stimulation at a concentration of 10 μM: Acetylcholinesterase, COX-1, COX-2, MAO-A, PDE3A, PDE4D2, Protein Tyrosine Kinase (LCK), Adenosine A2A, Adrenergic α1A, Adrenergic α2A, Adrenergic β1, Adrenergic β2, Androgen (Testosterone), Calcium Channel L-Type (Dihydropyridine), CB1, CB2, Cholecystokinin CCK1 (CCKA), Dopamine D1, Dopamine D2S, Endothelin ETA, GABAA (Flunitrazepam, Central), Glucocorticoid, Glutamate-NMDA (Agonism), Histamine H1, Histamine H2, Muscarinic M1, Muscarinic M2, Muscarinic M3, Nicotinic Acetylcholine α4β2, (Cytisine), DOP, KOP, MOP, Potassium Channel [KA], Potassium Channel hERG, Serotonin (5-Hydroxytryptamine) 5-HT1A, 5-HT1B, 5-HT3, Na-channel site 2, DAT, NET, SERT, Vasopressin V1A

[5] = molecular target: T2, PDE3A (Homo sapiens, UniProt Q14432); test: SafetyScreen44 (Panlabs) panel; type: biochemical; conditions: 10 μM
T2 construct: Panlabs (SafetyScreen44 panel)
Protocol: as §1

[6] = molecular target: T3, COX-2 (Homo sapiens, UniProt P35354); test: SafetyScreen44 (Panlabs) panel; type: biochemical; conditions: 10 μM
T3 construct: Panlabs (SafetyScreen44 panel)
Protocol: as §1

[7] = molecular target: T4, Acetylcholinesterase (Homo sapiens, UniProt P22303); test: SafetyScreen44 (Panlabs) panel; type: biochemical; conditions: 10 μM
T4 construct: Panlabs (SafetyScreen44 panel)
Protocol: as §1

[8] = molecular target: T5, Protein Tyrosine Kinase (LCK) (Homo sapiens, UniProt P06239); test: SafetyScreen44 (Panlabs) panel; type: biochemical; conditions: 10 μM
T5 construct: Panlabs (SafetyScreen44 panel)
Protocol: as §1

[9] = molecular target: T6, COX-1 (Homo sapiens, UniProt P23219); test: SafetyScreen44 (Panlabs) panel; type: biochemical; conditions: 10 μM
T6 construct: Panlabs (SafetyScreen44 panel)
Protocol: as §1

[10] = molecular target: T7, MAO-A (Homo sapiens, UniProt P21397); test: SafetyScreen44 (Panlabs) panel; type: biochemical; conditions: 10 μM
T7 construct: Panlabs (SafetyScreen44 panel)
Protocol: as §1

[11] = at therapeutically effective doses in animals and humans; cited from earlier work
[12] = molecular target: T8, Adenosine A2A (Homo sapiens, UniProt P29274); test: SafetyScreen44 (Panlabs) panel; type: binding; conditions: 10 μM
T8 construct: Panlabs (SafetyScreen44 panel)
Protocol: as §1

[13] = system: 5-HT1B; test: SafetyScreen44 (Panlabs) panel; type: binding; conditions: 10 μM
Protocol: as §1

[14] = molecular target: T9, CB1 (Homo sapiens, UniProt P21554); test: SafetyScreen44 (Panlabs) panel; type: binding; conditions: 10 μM
T9 construct: Panlabs (SafetyScreen44 panel)
Protocol: as §1

[15] = molecular target: T10, Adrenergic β1 (Homo sapiens, UniProt P08588); test: SafetyScreen44 (Panlabs) panel; type: binding; conditions: 10 μM
T10 construct: Panlabs (SafetyScreen44 panel)
Protocol: as §1

[16] = molecular target: T11, Histamine H2 (Homo sapiens, UniProt P25021); test: SafetyScreen44 (Panlabs) panel; type: binding; conditions: 10 μM
T11 construct: Panlabs (SafetyScreen44 panel)
Protocol: as §1

[17] = molecular target: T12, Glucocorticoid (Homo sapiens, UniProt P04150); test: SafetyScreen44 (Panlabs) panel; type: binding; conditions: 10 μM
T12 construct: Panlabs (SafetyScreen44 panel)
Protocol: as §1

[18] = system: GABAA (Flunitrazepam, Central); test: SafetyScreen44 (Panlabs) panel; type: binding; conditions: 10 μM
Protocol: as §1

[19] = molecular target: T13, NET (Homo sapiens, UniProt P23975); test: SafetyScreen44 (Panlabs) panel; type: binding; conditions: 10 μM
T13 construct: Panlabs (SafetyScreen44 panel)
Protocol: as §1

[20] = system: Androgen (Testosterone); test: SafetyScreen44 (Panlabs) panel; type: binding; conditions: 10 μM
Protocol: as §1

[21] = molecular target: T14, MOP (Homo sapiens, UniProt P35372); test: SafetyScreen44 (Panlabs) panel; type: binding; conditions: 10 μM
T14 construct: Panlabs (SafetyScreen44 panel)
Protocol: as §1

[22] = molecular target: T15, KOP (Homo sapiens, UniProt P41145); test: SafetyScreen44 (Panlabs) panel; type: binding; conditions: 10 μM
T15 construct: Panlabs (SafetyScreen44 panel)
Protocol: as §1

[23] = system: Calcium Channel L-Type (Dihydropyridine); test: SafetyScreen44 (Panlabs) panel; type: binding; conditions: 10 μM
Protocol: as §1

[24] = system: Potassium Channel [KA]; test: SafetyScreen44 (Panlabs) panel; type: binding; conditions: 10 μM
Protocol: as §1

T9 sequence (P21554 whole entry): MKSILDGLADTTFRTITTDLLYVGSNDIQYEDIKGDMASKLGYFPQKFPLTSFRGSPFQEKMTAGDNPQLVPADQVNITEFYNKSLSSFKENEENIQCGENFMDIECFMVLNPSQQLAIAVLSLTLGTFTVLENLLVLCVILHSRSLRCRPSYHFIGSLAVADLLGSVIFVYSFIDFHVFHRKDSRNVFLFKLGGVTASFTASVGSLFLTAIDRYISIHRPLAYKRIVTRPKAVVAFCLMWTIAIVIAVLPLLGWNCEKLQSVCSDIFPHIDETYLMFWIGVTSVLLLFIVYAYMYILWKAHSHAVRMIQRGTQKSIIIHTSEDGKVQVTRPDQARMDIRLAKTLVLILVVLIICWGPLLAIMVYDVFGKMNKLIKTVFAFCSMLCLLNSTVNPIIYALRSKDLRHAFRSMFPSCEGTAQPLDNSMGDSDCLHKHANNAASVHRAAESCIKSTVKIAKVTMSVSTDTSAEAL
5-HT2A, sequence (P28223 whole entry): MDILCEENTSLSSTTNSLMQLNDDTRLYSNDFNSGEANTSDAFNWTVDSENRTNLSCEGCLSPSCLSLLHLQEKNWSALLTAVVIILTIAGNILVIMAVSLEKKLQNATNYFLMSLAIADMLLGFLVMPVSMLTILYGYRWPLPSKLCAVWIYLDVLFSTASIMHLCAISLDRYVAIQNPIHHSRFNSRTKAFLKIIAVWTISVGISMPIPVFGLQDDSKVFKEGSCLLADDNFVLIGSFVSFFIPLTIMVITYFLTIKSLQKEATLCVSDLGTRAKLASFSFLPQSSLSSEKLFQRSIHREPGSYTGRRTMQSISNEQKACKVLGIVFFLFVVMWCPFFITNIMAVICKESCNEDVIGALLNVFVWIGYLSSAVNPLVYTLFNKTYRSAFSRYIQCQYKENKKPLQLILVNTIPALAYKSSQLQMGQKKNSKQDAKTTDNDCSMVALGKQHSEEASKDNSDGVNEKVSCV
T6 sequence (P23219 24-599): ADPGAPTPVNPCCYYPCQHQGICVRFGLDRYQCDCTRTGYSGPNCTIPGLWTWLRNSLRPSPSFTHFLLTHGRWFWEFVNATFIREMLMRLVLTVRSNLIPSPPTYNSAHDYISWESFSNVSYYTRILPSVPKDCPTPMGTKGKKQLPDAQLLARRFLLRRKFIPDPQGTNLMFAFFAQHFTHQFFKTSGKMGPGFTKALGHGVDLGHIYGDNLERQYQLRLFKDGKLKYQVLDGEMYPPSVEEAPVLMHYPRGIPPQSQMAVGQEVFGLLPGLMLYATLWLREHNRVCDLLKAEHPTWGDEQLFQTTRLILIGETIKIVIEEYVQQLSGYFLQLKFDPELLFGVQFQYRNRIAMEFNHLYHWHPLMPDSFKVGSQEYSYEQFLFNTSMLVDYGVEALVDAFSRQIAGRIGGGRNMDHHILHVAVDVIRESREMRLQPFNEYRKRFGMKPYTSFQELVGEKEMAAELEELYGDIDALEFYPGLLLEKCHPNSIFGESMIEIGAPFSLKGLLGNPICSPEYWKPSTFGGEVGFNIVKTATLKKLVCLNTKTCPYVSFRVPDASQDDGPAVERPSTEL
T7 sequence (P21397 whole entry): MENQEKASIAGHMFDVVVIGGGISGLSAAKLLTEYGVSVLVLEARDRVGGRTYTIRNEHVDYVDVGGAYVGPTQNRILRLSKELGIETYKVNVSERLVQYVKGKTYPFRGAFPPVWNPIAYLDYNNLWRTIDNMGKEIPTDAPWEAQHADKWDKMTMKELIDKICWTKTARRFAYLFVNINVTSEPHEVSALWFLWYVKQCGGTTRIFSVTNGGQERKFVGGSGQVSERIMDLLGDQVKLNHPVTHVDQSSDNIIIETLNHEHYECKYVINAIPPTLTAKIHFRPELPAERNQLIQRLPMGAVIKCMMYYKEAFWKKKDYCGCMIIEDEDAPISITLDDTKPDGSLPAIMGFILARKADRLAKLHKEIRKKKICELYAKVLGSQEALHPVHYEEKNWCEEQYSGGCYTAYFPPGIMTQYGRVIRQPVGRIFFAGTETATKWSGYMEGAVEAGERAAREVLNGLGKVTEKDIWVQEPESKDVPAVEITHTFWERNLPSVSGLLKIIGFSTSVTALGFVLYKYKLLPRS
T13 sequence (P23975 whole entry): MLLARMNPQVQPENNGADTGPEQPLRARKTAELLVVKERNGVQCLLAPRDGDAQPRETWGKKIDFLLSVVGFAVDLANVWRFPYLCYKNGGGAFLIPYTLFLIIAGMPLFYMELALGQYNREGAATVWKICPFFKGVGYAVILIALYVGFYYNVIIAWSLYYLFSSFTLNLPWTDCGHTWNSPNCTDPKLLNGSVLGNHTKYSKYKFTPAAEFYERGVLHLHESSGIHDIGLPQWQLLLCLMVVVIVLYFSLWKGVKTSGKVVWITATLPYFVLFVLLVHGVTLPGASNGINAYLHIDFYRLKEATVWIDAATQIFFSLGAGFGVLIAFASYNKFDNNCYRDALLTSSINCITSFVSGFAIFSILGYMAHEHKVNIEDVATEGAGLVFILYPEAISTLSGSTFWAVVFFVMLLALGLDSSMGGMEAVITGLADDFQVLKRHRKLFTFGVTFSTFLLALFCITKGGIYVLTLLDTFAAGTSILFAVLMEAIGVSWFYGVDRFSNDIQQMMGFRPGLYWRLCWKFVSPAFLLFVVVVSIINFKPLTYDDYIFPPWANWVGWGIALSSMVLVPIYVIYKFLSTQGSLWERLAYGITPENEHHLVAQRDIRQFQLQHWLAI
T3 sequence (P35354 18-604): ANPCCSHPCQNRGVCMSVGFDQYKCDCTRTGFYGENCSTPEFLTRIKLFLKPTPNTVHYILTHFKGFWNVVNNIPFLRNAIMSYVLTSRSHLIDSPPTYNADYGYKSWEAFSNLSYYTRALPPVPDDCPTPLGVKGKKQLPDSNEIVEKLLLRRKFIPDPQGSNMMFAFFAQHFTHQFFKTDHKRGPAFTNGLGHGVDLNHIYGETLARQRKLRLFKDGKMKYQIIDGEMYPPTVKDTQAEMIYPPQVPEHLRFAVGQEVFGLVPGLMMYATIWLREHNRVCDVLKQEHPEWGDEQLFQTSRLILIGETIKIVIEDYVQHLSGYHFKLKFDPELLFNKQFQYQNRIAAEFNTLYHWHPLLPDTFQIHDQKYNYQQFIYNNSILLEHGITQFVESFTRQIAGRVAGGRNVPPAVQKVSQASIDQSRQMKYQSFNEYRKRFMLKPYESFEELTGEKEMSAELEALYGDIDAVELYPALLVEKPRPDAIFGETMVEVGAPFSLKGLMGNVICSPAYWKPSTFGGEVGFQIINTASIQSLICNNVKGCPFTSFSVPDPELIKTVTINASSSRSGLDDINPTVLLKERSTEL
T14 sequence (P35372 whole entry): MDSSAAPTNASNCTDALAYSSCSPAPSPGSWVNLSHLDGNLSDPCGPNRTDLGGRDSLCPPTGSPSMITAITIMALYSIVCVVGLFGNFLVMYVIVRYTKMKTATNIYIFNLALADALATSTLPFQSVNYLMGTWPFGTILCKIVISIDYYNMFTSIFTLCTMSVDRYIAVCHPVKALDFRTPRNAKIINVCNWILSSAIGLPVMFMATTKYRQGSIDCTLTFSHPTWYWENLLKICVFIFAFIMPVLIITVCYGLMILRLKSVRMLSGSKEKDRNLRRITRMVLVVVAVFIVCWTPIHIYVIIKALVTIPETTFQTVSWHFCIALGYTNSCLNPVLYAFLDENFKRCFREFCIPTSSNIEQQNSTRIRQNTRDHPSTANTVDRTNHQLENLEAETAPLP
T1 sequence (Q08499 303-809 limits assumed): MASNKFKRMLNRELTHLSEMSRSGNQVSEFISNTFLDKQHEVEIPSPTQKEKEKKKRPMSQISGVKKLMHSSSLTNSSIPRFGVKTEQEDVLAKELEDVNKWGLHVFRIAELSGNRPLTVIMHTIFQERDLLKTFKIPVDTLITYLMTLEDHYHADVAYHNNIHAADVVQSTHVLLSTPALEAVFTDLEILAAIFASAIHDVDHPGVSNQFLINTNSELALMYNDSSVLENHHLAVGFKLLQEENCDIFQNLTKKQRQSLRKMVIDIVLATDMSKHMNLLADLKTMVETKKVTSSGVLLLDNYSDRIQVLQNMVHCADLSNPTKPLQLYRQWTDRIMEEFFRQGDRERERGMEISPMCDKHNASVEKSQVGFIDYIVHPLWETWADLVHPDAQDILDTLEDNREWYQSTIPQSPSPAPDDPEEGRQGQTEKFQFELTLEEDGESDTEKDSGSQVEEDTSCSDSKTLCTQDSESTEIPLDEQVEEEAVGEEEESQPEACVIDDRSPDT
T10 sequence (P08588 whole entry): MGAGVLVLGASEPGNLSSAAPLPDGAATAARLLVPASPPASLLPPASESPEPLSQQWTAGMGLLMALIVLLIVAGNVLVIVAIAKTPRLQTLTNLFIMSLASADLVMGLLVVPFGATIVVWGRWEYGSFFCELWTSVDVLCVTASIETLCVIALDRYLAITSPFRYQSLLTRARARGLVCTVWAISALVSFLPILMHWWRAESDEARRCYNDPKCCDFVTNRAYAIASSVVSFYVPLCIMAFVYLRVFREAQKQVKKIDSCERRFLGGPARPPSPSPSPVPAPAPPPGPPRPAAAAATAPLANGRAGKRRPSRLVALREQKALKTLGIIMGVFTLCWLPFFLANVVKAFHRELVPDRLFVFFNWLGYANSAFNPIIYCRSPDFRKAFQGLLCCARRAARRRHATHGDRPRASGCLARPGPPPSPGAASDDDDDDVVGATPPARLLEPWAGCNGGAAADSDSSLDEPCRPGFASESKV
T11 sequence (P25021 whole entry): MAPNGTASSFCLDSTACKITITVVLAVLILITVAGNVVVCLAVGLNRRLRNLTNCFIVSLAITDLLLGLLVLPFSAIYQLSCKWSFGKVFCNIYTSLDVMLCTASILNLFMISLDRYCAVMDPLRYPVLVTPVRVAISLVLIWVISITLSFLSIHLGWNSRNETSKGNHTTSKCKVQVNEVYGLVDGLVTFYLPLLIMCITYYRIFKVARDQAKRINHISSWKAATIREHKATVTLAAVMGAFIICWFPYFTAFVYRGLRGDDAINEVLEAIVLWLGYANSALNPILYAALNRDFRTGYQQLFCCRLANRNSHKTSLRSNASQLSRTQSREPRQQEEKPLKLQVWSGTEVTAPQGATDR

CCC(N)Cc1cc(OC)c(C)cc1OC (stereo not drawn) [Ariadne (32), 1-(2,5-dimethoxy-4-methylphenyl)butan-2-amine]
EC50 [1]: > 32 µM
Selectivity (EC50 2B ÷ EC50 2A) [2]: 25x
antidepressant-like effects (immobility time) [3]: antidepressant-like effects
% stimulation [4]: < 50%
% stimulation [5]: < 50%
% stimulation [6]: < 50%
% stimulation [7]: < 50%
% stimulation [8]: < 50%
% stimulation [9]: < 50%
% stimulation [10]: < 50%
hallucinogenic effect [11]: no hallucinogenic effect
% stimulation [12]: < 50%
% stimulation [13]: < 50%
% stimulation [14]: < 50%
% stimulation [15]: < 50%
% stimulation [16]: < 50%
% stimulation [17]: < 50%
% stimulation [18]: < 50%
% stimulation [19]: < 50%
% stimulation [20]: < 50%
% stimulation [21]: < 50%
% stimulation [22]: < 50%
% stimulation [23]: < 50%
% stimulation [24]: < 50%
